Earlier results on one molecule are cited in patent US10610528B2, “Solid oral film dosage forms and methods for making same” (Intelgenx Corp., priority 2009, dated 2020).

With `CN1CC(=O)N2[C@H](c3ccc4c(c3)OCO4)c3[nH]c4ccccc4c3C[C@@H]2C1=O` [Tadalafil], the Solubility in water result is given as “practically insoluble in water”.
